Data: patent US20260062677A1, “ECTODERMAL MESENCHYMAL STEM CELLS AND METHOD FOR PRODUCING SAME” (STEMRIM INC., priority 2017, published 2026)

Tests used:
[1] = system: colony-forming Pα cells in peripheral blood; assay: Colony assay of cultured peripheral blood after HA1-44 peptide administration; assay type: in vivo, mouse; details: FIG. 24
Experimental: The following method was used to recover cells from peripheral blood. Approximately 800 to 1000 μL of peripheral blood was collected from the heart under general anesthesia (using a 1 mL syringe containing heparin). To remove red blood cells, Hetasep (STEMCELL Technologies, Inc., Cat No. ST-07906) at equal amount of the collected blood was added, the mixture was centrifuged at 100 G for 2 minutes, and incubated at room temperature for 15 minutes, then the supernatant was recovered. The supernatant was subjected to the next experiment as a sample containing nuclear cells in peripheral blood.
The supernatant obtained by the above procedure (sample containing nucleated cells in peripheral blood) was seeded in a 6-well plate coated with collagen I (Corning Incorporated, Cat No. 356400), and cultured for 10 days under a condition of 37° C., 5% CO2, 5% 02 using a medium containing 1% L-glutamine (NACALAI TESQUE, INC.), 10 μM ROCK inhibitor (Y27632, Tocris Bioscience) and 1% penicillin/streptomycin (NACALAI TESQUE, INC.) in an expansion medium prepared using a MesenCult Expansion Kit (STEMCELL Technologies, Inc., Cat No. ST-05513) according to the manual of the kit (all concentrations described are final concentrations). The medium was replaced with a fresh medium twice a week during the culture period. […]

[2] = system: vertebral Pα cells; assay: Transcriptome and IPA pathway analysis of vertebral Pα cells after administration; assay type: in vivo, mouse; details: compared to control group (saline)
Experimental: RNA was extracted from the cell population, and an RNA-seq library was created according to Smart-seq2 protocol (Nature Protocols 9, 171-181 (2014) doi: 10.1038/nprot.2014.006). The obtained library was sequenced with Nextseq 500 (Illumina, Inc.) using a nextseq high output kit (37 bp pair end reads). Using bcl2fastq v2.17.1.14 of Illumina, Inc. with default parameters and optional --no-lane-splitting, conversion of base calls to fastq format and demultiplex were performed. Reads were trimmed using TrimGalore (http://www.bioinformatics.babraham.ac.uk/projects/trim_galore/), and mapping and counting (quantification) were performed using RSEM (Li et al., BMC Bioinformatics 12, 323 (2011); version STAR-2.5.2b). Differential expression analysis among samples was performed using DESeq2 (Love et al., Genome Biol. 15, 550 (2014)). Differentially Expressed Genes (DEGs) were uploaded to the Ingenuity Pathway Analysis (IPA) software (https://www.qiagenbioinformatics.com) to extract the most relevant biological pathways and functions to DEGs. Clustering analysis was performed using ICGS algorithm of AltAnalyze_v.2.1.0-Py based on log 2 converted values of 1-added TPM (Transcripts Per kilobase Million) counts obtained with RSEM (log 2 (TPM+1)). […]

[3] = system: knee cartilage injury site; assay: Knee cartilage defect model in wild-type mouse, safranin O staining; assay type: in vivo; details: wild-type mouse alone; 100 μg via tail vein twice a week until 4 weeks; 2, 4, 8 and 12 weeks; saline group only fibrous cartilage; FIG. 28
Experimental: A parabiosis model was created using a 6-week old male wild-type mouse and a 6-week old male P0-Cre::Rosa26-tdTomato mouse using the method described in 3. above. After completion of the blood chimera at 4 weeks after operation, a 0.5×0.5×0.5 mm cartilage defect was created in the knee joint of the wild-type mouse using a 0.5 mm-diameter hand-turned drill (manufactured by MEISINGER USA, L.L.C.). Shortly after the cartilage defect was created, 100 μg of HA1-44 peptide diluted with 100 μL of saline was administered from the tail vein and subsequently administered at the same dose twice a week until 4 weeks after operation. To the control group, 100 μL of saline was administered to each mouse from the tail vein on the same schedule as in the HA1-44 peptide administration group. A knee joint was collected 12 weeks after knee cartilage defect creation, then fixation with 4% paraformaldehyde (overnight), deashing with 0.5 M EDTA solution (3 days), and 30% sucrose replacement (1 day) were performed to create a frozen block. It was sliced at a thickness of 10 μm using a cryostat, and the distribution of Tomato-positive cells was analyzed by confocal microscopy. […]

[4] = system: Pα^lin+ cells in grafted skin; assay: Parabiosis model (Pα-Cre::Rosa26-EYFP / wild-type) with epidermolysis bullosa mouse skin graft; assay type: in vivo; details: peptide given to the Pα-Cre::Rosa26-EYFP partner, epidermolysis bullosa skin grafted on the wild-type partner; FIG. 25
Excerpt: (§1) A parabiosis model was created using a 6-week old male wild-type mouse and a 6-week old male cell lineage tracing mouse with reference to Kamran P et al. J Vis Exp. 2013 Oct. 6; (80). Two mice were simultaneously subjected to general anesthetic induction with isoflurane, and positioned on a heat pad. The body side surfaces opposite to each other of the two mice were shaved, and the skin was removed approximately 5 mm wide from the elbow joint to the knee joint. The dorsal skin was continuously sutured with 5-0 VICRYL. The elbow joints and knee joints each opposite to each other were sutured with 3-0 VICRYL. The abdominal skin was also continuously sutured with 5-0 VICRYL. The mice were left on the heat pad until awakened from anesthesia. To avoid restricting activity, up to one pair were raised per cage, and scattered food was offered.
(§2) The present inventors have previously identified a peptide (HA1-44 peptide) consisting of the amino acid sequence of positions 1-44 (SEQ ID NO: 1) at the N-terminus of HMGB1 protein as a domain having the activity of mobilizing bone marrow-derived Pα-positive mesenchymal stem cells into peripheral blood. […] Furthermore, a cartilage injury was created to the knee joint of a wild-type mouse alone that was not a parabiosis model, then the HA1-44 peptide or saline was administered.

[5] = system: Pα^+ and Prx1^lin− cells in the skin graft; assay: Parabiosis model (Pα-H2B-GFP::Prx1-Cre::Rosa26-tdTomato / wild-type) with wild-type neonate skin graft; assay type: in vivo, mouse; details: peptide given to the reporter partner, neonate skin grafted on back of the wild-type partner; FIG. 26
Excerpt: as §1, §2

[6] = system: CD45-negative, TER-119-negative, and PDGFRβ-positive cells; assay: Phase I clinical study, cells in circulating blood; assay type: in vivo; details: human, intravenous administration; peripheral blood mononuclear cell fractions before, 8 h and 24 h after administration; FIG. 33
Excerpt: Since PDGFRβ is a marker of human mesenchymal stem cells, it is believed that a marker (including a combination of multiple markers) defining iCFPα cells and vertebral CFPα cells in peripheral blood described herein, in which the term “PDGFRα” is replaced with the term “PDGFRβ”, will also be a marker (including a combination of multiple markers) defining EMSC (colony-forming PDGFR-positive cells in peripheral blood or in vertebra) in humans.

[7] = system: P0^lin+ cells at the cartilage injury site; assay: Parabiosis (P0-Cre::Rosa26-tdTomato / wild-type) and knee cartilage defect model; assay type: in vivo, mouse; details: 100 μg via tail vein, twice a week until 4 weeks; knee joint collected at 12 weeks; versus saline (no accumulation); FIG. 27
Excerpt: as §1
A parabiosis model was created using a 6-week old male wild-type mouse and a 6-week old male P0-Cre::Rosa26-tdTomato mouse using the method described in 3. above. After completion of the blood chimera at 4 weeks after operation, a 0.5×0.5×0.5 mm cartilage defect was created in the knee joint of the wild-type mouse using a 0.5 mm-diameter hand-turned drill (manufactured by MEISINGER USA, L.L.C.). […] It was sliced at a thickness of 10 μm using a cryostat, and the distribution of Tomato-positive cells was analyzed by confocal microscopy. […]

In the case of “HA1-44 peptide: peptide consisting of amino acid sequence of positions 1-44 (MGKGDPKKPRGKMSSYAFFVQTCREEHKKKHPDASVNFSEFSKK) at the N-terminus of A-box of HMGB1 protein”, the “number of colonies obtained by culturing peripheral blood” value ([1]; lineage tracing mice, versus control group (saline administration)) is reported as “more colonies than peripheral blood in the control group”, the “markers of the colonies obtained (Pα, Prx1 lineage)” value ([1]; peripheral blood of lineage tracing mice given the peptide) is reported as “All of the colonies were Pα-positive, and the majority of which were Prx1 lineage-negative” and the “pathways associated with EIF2 signaling, regulation of eIF4 and p70S6K signaling, and mTOR signaling” value ([2]; FIG. 31) is reported as “activated”. The “expression of cell death-related genes” value ([2]; FIG. 32) was “suppressed”, the “cartilage regeneration at the cartilage injury site” value [3] was “hyaline cartilage was regenerated” and the “Pα^lin+ cells expressing type 7 collagen in regenerated epithelial tissue of the skin graft” value [4] was “presence of Pα^lin+ cells expressing type 7 collagen was confirmed”. The “Pα^+ and Prx1^lin− cells in the skin graft” value [5] was “presence of Pα^+ and Prx1^lin− cells in the skin graft was confirmed”, the “CD45-negative, TER-119-negative, and PDGFRβ-positive cells in circulating blood” value [6] was “increase” and the “accumulation of P0^lin+ cells at the cartilage injury site” value [7] was “accumulation of P0^lin+ cells was confirmed”.
